From patent US20210137890A1, “DEUTERATED IMIDAZOLIDINEDIONE COMPOUNDS AND THEIR USES” (priority 2018, published 2021)
Entries after “also recorded” stand apart in the source; their conditions may differ. Like-named read-outs stand apart in the source and are kept apart here.

Legend:
[1] = tested on: serum PSA; conditions: mCRPC patients
Description: There were two (2) stages or arms to the study, Stage A and Stage B.
During Stage A, the dose escalation tolerance (or tolerability) study was conducted using the traditional rule-based 3+3 design. All subjects in Stage A were involved in pharmacokinetic studies. […]
Stage A: PSA was dynamically observed to assess the initial dose-effectiveness based on data from subjects in each dose group until the end of the 12-week trial period. Serum PSA test, safety evaluation (including blood, liver and kidney function, electrocardiogram, etc.) were performed at the 6th, 8th, 10th and 12th weeks of visit, and the trial ended at the 12th week of visit.
They show the percentage change in PSA levels for subjects in the study. In both figures, the vertical axis represents the percent change in PSA levels from the baseline and the horizontal axis (numbers that are in line with the “0%”) identifies individual patient or subject numbers.

[2] = mouse, in vivo
[3] = dog, in vivo, 90 mg/kg
[4] = Clinical pharmacokinetic study of HC-1119 (Stage A, plasma M0, M1, M2); conditions: steady state, 80 mg HC-1119
Description: Single dose biological sample collection: Subjects were given a single fasting dose on the first day of the study. Blood samples were collected before (−0.5˜0 h) and after administration 0.5, 0.75, 1, 2 h (±5 min), 4, 8, 12 h (±15 min), 24 h (±30 min, Day 2 before administration). Venous blood (3 mL) was collected, set in an anticoagulant tube (type of anticoagulant was based on established analytical test methods).
Continuous administration of biological samples collected: Blood sample collected on continuous administration Day 7, 21, 35, 42, 56, 70, 84 before administration, on Day 84 after administration 0.5, 0.75, 1, 2 h (±5 min), 4, 8, 12 h (±15 min), 24 h (±30 min, Day 85 before administration). Venous blood (3 mL) was collected, set in an anticoagulant tube (type of anticoagulant was based on established analytical test methods).
Sample Handling: Samples were centrifuged (about 3000 rpm for 10 minutes) to separate the plasma as soon as possible. Isolated plasma samples were stored in duplicate in plasma cryostat, with the tagged population's enrollment number, subject's initials, date and time of collection. Plasma samples were stored in −60° C.˜−80° C. freezer as soon as possible. One blood sample was retained at the research center and one blood sample was shipped to a specialist testing company for plasma drug concentration determination.

[5] = In vitro activity of metabolites M1 and M2; conditions: in vitro experiments
[6] = molecular target: T1, AR (Homo sapiens, UniProt P10275); conditions: read-out: Ki for AR binding
T1 sequence (P10275 1-920): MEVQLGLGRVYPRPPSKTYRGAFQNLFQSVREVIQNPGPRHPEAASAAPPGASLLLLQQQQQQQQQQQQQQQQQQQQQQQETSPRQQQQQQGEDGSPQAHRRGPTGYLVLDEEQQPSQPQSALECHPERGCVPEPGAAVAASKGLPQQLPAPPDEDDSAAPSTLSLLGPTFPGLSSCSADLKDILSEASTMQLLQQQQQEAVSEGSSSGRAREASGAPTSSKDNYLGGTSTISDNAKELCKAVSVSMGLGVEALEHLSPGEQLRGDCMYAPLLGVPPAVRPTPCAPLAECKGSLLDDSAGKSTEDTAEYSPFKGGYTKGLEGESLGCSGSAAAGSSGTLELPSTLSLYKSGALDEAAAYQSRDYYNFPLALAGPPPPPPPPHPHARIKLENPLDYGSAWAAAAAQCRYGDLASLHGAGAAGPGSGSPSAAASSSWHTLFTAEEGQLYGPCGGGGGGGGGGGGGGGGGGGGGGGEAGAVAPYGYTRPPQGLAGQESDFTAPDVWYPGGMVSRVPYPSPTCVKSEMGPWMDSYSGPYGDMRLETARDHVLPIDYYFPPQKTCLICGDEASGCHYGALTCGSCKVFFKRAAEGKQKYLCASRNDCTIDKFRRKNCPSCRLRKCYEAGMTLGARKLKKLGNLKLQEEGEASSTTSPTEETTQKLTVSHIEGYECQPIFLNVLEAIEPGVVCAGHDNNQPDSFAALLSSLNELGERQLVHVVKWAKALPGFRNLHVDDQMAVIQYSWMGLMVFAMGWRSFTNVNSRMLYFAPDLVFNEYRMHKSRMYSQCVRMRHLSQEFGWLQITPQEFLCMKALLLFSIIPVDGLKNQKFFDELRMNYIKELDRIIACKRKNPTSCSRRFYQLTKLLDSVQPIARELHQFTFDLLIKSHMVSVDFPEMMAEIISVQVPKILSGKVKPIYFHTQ

[7] = tested on: LNCaP; assay: LNCaP growth inhibition; assay type: cell-based
[8] = Phase I dose escalation study, human; cited from earlier work
[9] = Brain penetration of parental drug and metabolites in mice (PD study); conditions: mouse, po, 10 mg/kg

SMILES: [2H]C([2H])([2H])NC(=O)c1ccc(N2C(=S)N(c3ccc(C#N)c(C(F)(F)F)c3)C(=O)C2(C)C)cc1F [HC-1119, 4-{3-[4-cyano-3-(trifluoromethyl)phenyl]-5,5-dimethyl-4-oxo-2-thio-1-imidazolidinyl}-2-fluoro-N-trideuteromethylbenzamide]
- maximum decrease in PSA levels by more than 50% from the baseline (maximum response rate) ([1]; 40 mg dose group): 66.7%
- rate of decrease in PSA levels by more than 50% from the baseline (response rate at week 12) ([1]; 40 mg dose group): 66.7%
- maximum decrease in PSA levels by more than 50% from the baseline (maximum response rate) ([1]; 80 mg dose group): 88.8%
- rate of decrease in PSA levels by more than 50% from the baseline (response rate at week 12) ([1]; 80 mg dose group): 75%
- maximum decrease in PSA levels by more than 50% from the baseline (maximum response rate) ([1]; 160 mg dose group): 50%
- rate of decrease in PSA levels by more than 50% from the baseline (response rate at week 12) ([1]; 160 mg dose group): 57.1%
- maximum decrease in PSA levels by more than 50% from the baseline (maximum response rate) ([1]; 200 mg dose group): 100%
- rate of decrease in PSA levels by more than 50% from the baseline (response rate at week 12) ([1]; 200 mg dose group): 33.3%
- Brain ([2]; po, 10 mg/kg): 1393 ng/g
- Plasma ([2]; po, 10 mg/kg): 4686 ng/mL
- adult equivalent dose (HED) calculated from HNSTD [3]: 2916 mg/day
- C24 h for the combination of the active drugs (M0+M2) [4]: close to that of 160 mg enzalutamide

SMILES: CC1(C)C(=O)N(c2ccc(C#N)c(C(F)(F)F)c2)C(=S)N1c1ccc(C(=O)O)c(F)c1 [M1]
- in vitro activity [5]: inactive; also recorded: not active

SMILES: CC1(C)C(=O)N(c2ccc(C#N)c(C(F)(F)F)c2)C(=S)N1c1ccc(C(N)=O)c(F)c1 [M2]
- Ki [6]: 57 nM
- IC50 [7]: 0.13 nM
- crossing of the blood-brain barrier (BBB) [2]: more readily cross the blood-brain barrier

SMILES: CNC(=O)c1ccc(N2C(=S)N(c3ccc(C#N)c(C(F)(F)F)c3)C(=O)C2(C)C)cc1F [enzalutamide]
- maximum tolerable dosage (MTD) [8]: 240 mg/day
- concentration at 24 h ([9]; brain): 647 ng/g
- Kp at 24 h ([9]; brain/plasma): 0.31
- concentration at 24 h ([9]; plasma): 2100 ng/mL
